The target in one data set is CYP3A4 (Homo sapiens, UniProt P08684). Briefly: Cytochrome P450 (CYP450) Inhibition Assay, CYP3A4 (Vivid fluorescence, BOMCC substrate). Particulars: for inhibition at 10 µM: human, P450 Baculosomes (recombinant CYP3A4), probe BOMCC (Vivid substrate).

21 molecules from patent publication US8263606B2 (Xenon Pharmaceuticals Inc., priority 2008, dated 2012) can be followed below.

Each structure is given as a SMILES string. Bounds are passed on as bounds.

Chain of CYP3A4 (P08684 whole entry): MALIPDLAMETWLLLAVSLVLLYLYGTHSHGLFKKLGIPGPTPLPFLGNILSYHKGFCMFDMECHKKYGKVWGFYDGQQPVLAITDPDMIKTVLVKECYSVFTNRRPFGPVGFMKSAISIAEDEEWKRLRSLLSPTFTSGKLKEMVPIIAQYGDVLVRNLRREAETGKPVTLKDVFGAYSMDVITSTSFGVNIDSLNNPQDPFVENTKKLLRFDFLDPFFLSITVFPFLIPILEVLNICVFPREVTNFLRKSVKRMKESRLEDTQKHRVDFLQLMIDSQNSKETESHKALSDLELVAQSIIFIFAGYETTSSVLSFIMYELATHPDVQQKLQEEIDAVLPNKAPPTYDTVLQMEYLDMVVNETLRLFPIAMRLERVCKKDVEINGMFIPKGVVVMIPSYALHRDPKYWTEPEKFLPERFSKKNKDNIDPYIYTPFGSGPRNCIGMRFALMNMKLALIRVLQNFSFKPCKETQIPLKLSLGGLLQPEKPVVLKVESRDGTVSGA

Regarding `O=C1N(Cc2cc3ccccc3o2)c2ccccc2C12COc1cc3c(cc12)OCO3` (stereo not shown) [Example 1.8, 1′-(1-benzofuran-2-ylmethyl)spiro[furo[2,3-f][1,3]-benzodioxole-7,3′-indol]-2′(1′H)-one], the melting point – broadly, the temperature, or range, at which the solid turns liquid – lay within 167 to 168 °C. The inhibition (as a rule, the share of the control response that was lost under treatment) at 10 µM on CYP3A4 was greater than 50%.

Take `CN1C(=O)C2(COc3cc4c(cc32)OCCO4)c2c(C(=O)Oc3ccccc3)cccc21` (stereo not shown) [Example 2.53, phenyl 1′-methyl-2′-oxo-1′,2,2′,3-tetrahydrospiro[furo[2,3-g][1,4]benzodioxine-8,3′-indole]-4′-carboxylate]: the melting point is 184 to 186 °C. Moreover, the inhibition at 10 µM on CYP3A4 was greater than 50%.

Regarding `Cl.O=C1N(Cc2ccccn2)c2ccccc2C12COc1cc3c(cc12)OCCO3` (stereo not shown) [Example 4.42, 1′-(pyridin-2-ylmethyl)-2,3-dihydrospiro[furo[2,3-g][1,4]benzodioxine-8,3′-indol]-2′(1′H)-one hydrochloride], the melting point was 206 to 208 °C. Also, at CYP3A4 (CYP3A4 isozyme, at 10 μM), the “% Inhibition of CYP3A4” value is reported as “A (percent inhibition of less than 50% at 10 μM)”.

For the molecule `O=C1N(Cc2cccc(C(F)(F)F)n2)c2ccccc2C12COc1cc3c(cc12)OCCO3` (stereo not shown) [Example 5.9, 1′-{[6-(trifluoromethyl)pyridin-2-yl]methyl}-2,3-dihydrospiro[furo[2,3-g][1,4]benzodioxine-8,3′-indol]-2′(1′H)-one], the melting point fell in the range of 195 to 196 °C. Also, the inhibition at 10 µM on CYP3A4 was greater than 50%.

Turning to `O=C1N(Cc2cccnc2C(F)(F)F)c2ccccc2C12COc1cc3c(cc12)OCCO3` (stereo not shown) [Example 5.10, 1′-{[2-(trifluoromethyl)pyridin-3-yl]methyl}-2,3-dihydrospiro[furo[2,3-g][1,4]benzodioxine-8,3′-indol]-2′(1′H)-one], the melting point is 219 to 220 °C. Besides, on CYP3A4, the inhibition at 10 µM is less than 50%.

As for `O=C1N(Cc2nccnc2C(F)(F)F)c2ccccc2C12COc1cc3c(cc12)OCCO3` (stereo not shown) [Example 5.11, 1′-{[3-(trifluoromethyl)pyrazin-2-yl]methyl}-2,3-dihydrospiro[furo[2,3-g][1,4]benzodioxine-8,3′-indol]-2′(1′H)-one], the melting point was 230 to 232 °C. Further, the inhibition at 10 µM at CYP3A4 was less than 50%.

On to `O=C1N(Cc2cnccc2C(F)(F)F)c2ccccc2C12COc1cc3c(cc12)OCCO3` (stereo not shown) [Example 5.12, 1′-{[4-(trifluoromethyl)pyridin-3-yl]methyl}-2,3-dihydrospiro[furo[2,3-g][1,4]benzodioxine-8,3′-indol]-2′(1′H)-one], for which the melting point was in the range of 131 to 132 °C. The inhibition at 10 µM on CYP3A4 was greater than 50%.

Molecule `COc1ncc(CN2C(=O)C3(COc4cc5c(cc43)OCCO5)c3ccccc32)cn1` (stereo not shown) [Example 5.14, 1′-[(2-methoxypyrimidin-5-yl)methyl]-2,3-dihydrospiro[furo[2,3-g][1,4]benzodioxine-8,3′-indol]-2′(1′H)-one] yielded a melting point of 248 to 249 °C. Besides, at CYP3A4, the inhibition at 10 µM was less than 50%.

In the case of `O=C1N(C[C@H]2COCCO2)c2ccccc2C12COc1cc3c(cc12)OCCCO3` (stereo partly drawn) [Example 8.13, 1′-[(2S)-1,4-dioxan-2-ylmethyl]-3,4-dihydro-2H-spiro[furo[2,3-h][1,5]benzodioxepine-9,3′-indol]-2′(1′H)-one], the melting point fell in the range of 137 to 139 °C. Also, the inhibition at 10 µM at CYP3A4 is less than 50%.

Turning to `O=C(O)CN1C(=O)C2(COc3cc4c(cc32)OCCO4)c2ccccc21` (stereo not shown) [Example 11.76, (2′-oxo-2,3-dihydrospiro[furo[2,3-g][1,4]benzodioxine-8,3′-indol]-1′(2′H)-yl)acetic acid], the melting point was 193 to 196 °C.

`CN1C(=O)C2(COc3cc4c(cc32)OCCO4)c2c(C(=O)O)cccc21` (stereo not shown) [Example 11.77, 1′-methyl-2′-oxo-1′,2,2′,3-tetrahydrospiro[furo[2,3-g][1,4]benzodioxine-8,3′-indole]-4′-carboxylic acid] registered a melting point of 297 to 299 °C. For the same molecule, on CYP3A4, the inhibition at 10 µM is less than 50%.

With `Cc1noc2cc3c(cc12)C1(CO3)C(=O)N(Cc2nc(C(=O)N(C)C)co2)c2ccccc21` (stereo not shown) [Example 13.9, N,N-dimethyl-2-[(3-methyl-2′-oxospiro[furo[3,2-f][1,2]benzisoxazole-5,3′-indol]-1′(2′H)-yl)methyl]-1,3-oxazole-4-carboxamide], the melting point is 87 to 89 °C.

Molecule `CN1C(=O)C2(COc3cc4c(cc32)OCCO4)c2c(-c3ccc4ccc(=O)oc4c3)cccc21` (stereo not shown) [Example 16.15, 1′-methyl-4′-(2-oxo-2H-chromen-7-yl)-2,3-dihydrospiro[furo[2,3-g][1,4]benzodioxine-8,3′-indol]-2′(1′H)-one] displayed a melting point of 228 to 229 °C. The inhibition at 10 µM at CYP3A4 is greater than 50%.

Molecule `CN1C(=O)C2(COc3cc4c(cc32)OCCO4)c2c1cccc2N1CCCC1=O` (stereo not shown) [Example 16.16, 1′-methyl-4′-(2-oxopyrrolidin-1-yl)-2,3-dihydrospiro[furo[2,3-g][1,4]benzodioxine-8,3′-indol]-2′(1′H)-one] came in with a melting point of 256 to 258 °C. Moreover, the inhibition at 10 µM on CYP3A4 was less than 50%.

`CN1C(=O)C2(COc3cc4c(cc32)OCCO4)c2c(N3CCOCC3)cccc21` (stereo not shown) [Example 16.17, 1′-methyl-4′-morpholin-4-yl-2,3-dihydrospiro[furo[2,3-g][1,4]benzodioxine-8,3′-indol]-2′(1′H)-one] displayed a melting point of 246 to 249 °C. The inhibition at 10 µM on CYP3A4 is less than 50%.

With `CN1C(=O)C2(COc3cc4c(cc32)OCCO4)c2c1cccc2-n1ccccc1=O` (stereo not shown) [Example 16.18, 1′-methyl-4′-(2-oxopyridin-1(2H)-yl)-2,3-dihydrospiro[furo[2,3-g][1,4]benzodioxine-8,3′-indol]-2′(1′H)-one], the melting point is 212 to 214 °C. Besides, the inhibition at 10 µM on CYP3A4 was less than 50%.

For `CN1C(=O)C2(COc3cc4c(cc32)OCCO4)c2c(N)cccc21` (stereo not shown) [Example 16.19, 4′-amino-1′-methyl-2,3-dihydrospiro[furo[2,3-g][1,4]benzodioxine-8,3′-indol]-2′(1′H)-one], the melting point was 252 to 254 °C. Also, at CYP3A4, the inhibition at 10 µM was less than 50%.

In turn, `CN1C(=O)C2(COc3cc4c(cc32)OCCO4)c2c(NC(=O)C3CCC3)cccc21` (stereo not shown) [Example 16.20, N-(1′-methyl-2′-oxo-1′,2,2′,3-tetrahydrospiro[furo[2,3-g][1,4]benzodioxine-8,3′-indol]-4′-yl)cyclobutanecarboxamide] showed a melting point of 234 to 236 °C. Further, the inhibition at 10 µM at CYP3A4 was less than 50%.

As to `CN1C(=O)C2(COc3cc4c(cc32)OCCO4)c2c(C(=O)NC3CC3)cccc21` (stereo not shown) [Example 16.40, N-cyclopropyl-1′-methyl-2′-oxo-1′,2,2′,3-tetrahydrospiro[furo[2,3-g][1,4]benzodioxine-8,3′-indole]-4′-carboxamide], the melting point is 127 to 128 °C.

In turn, `CN1C(=O)C2(COc3cc4c(cc32)OCCO4)c2c(C(N)=O)cccc21` (stereo not shown) [Example 16.72, 1′-methyl-2′-oxo-1′,2,2′,3-tetrahydrospiro[furo[2,3-g][1,4]benzodioxine-8,3′-indole]-4′-carboxamide] yielded a melting point greater than 250 °C.

The molecule `CNC(=O)c1cccc2c1C1(COc3cc4c(cc31)OCCO4)C(=O)N2C` (stereo not shown) [Example 16.76, N,1′-dimethyl-2′-oxo-1′,2,2′,3-tetrahydrospiro[furo[2,3-g][1,4]benzodioxine-8,3′-indole]-4′-carboxamide] came in with a melting point of 120 to 122 °C.
